Measurements published in US7968534B2, “Sulfonamide derivatives, preparation thereof and use thereof as antagonists of orexin 2 receptors” (Sanofi-Aventis, priority 2006, dated 2011).
pIC50: −log10 of the molar value. Structures can show the parent of a compound that is named as a salt. Where two headings read alike, the source gives them in different places.

Columns and labels:
human orexin 2 receptors = target: T1, human orexin 2 receptors (Homo sapiens, UniProt O43614); assay: in vitro binding test: displacement of radioiodinated orexin A, membranes of CHO cells; details: read-out: IC50 OX 2
T1 construct: expressed in transfected cells; host or cells: CHO cells (membranes)
T1 sequence (O43614 1-444): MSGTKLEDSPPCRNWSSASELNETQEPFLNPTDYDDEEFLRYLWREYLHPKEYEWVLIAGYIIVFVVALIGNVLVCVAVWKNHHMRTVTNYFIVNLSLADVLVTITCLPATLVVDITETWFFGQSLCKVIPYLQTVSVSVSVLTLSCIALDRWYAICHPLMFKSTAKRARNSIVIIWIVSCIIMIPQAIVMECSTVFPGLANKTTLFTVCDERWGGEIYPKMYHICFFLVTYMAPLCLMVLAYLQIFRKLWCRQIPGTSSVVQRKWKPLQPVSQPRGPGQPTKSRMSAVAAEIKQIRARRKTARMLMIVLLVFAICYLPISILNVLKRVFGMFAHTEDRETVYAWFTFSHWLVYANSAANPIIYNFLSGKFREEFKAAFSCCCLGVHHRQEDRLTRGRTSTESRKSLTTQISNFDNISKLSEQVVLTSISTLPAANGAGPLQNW
Description: (§1) They were in particular tested for their effects. […] This method consists in studying the displacement of radioiodinated orexin A attached to the human orexin 2 receptors expressed in CHO cells. The test is performed on membranes in a 50 mM Hepes incubation buffer containing 1 mM MgCl2, 25 mM CaCl2, 0.025% NaN3, 1% bovine serum albumin (BSA) and 100 pM of ligand for 30 minutes at 25° C. The reaction is stopped by filtration and washing on a Whatman GF/C filter. The nonspecific binding is measured in the presence of 10^−6M human orexin B. The IC50 values (concentration inhibiting 50% of the binding of radioiodinated orexin A to its receptors) are low, less than 300 nM, in particular less than 100 nM and more particularly less than 30 nM.

human orexin 1 receptors = target: T2, human orexin 1 receptors (Homo sapiens, UniProt O43613); assay: in vitro binding test, same technique, radioiodinated orexin A, membrane preparation of CHO cells; details: Table 2, read-out: IC50 OX 1
T2 construct: expressed in transfected cells; host or cells: CHO cells (membrane preparation)
T2 sequence (O43613 1-425): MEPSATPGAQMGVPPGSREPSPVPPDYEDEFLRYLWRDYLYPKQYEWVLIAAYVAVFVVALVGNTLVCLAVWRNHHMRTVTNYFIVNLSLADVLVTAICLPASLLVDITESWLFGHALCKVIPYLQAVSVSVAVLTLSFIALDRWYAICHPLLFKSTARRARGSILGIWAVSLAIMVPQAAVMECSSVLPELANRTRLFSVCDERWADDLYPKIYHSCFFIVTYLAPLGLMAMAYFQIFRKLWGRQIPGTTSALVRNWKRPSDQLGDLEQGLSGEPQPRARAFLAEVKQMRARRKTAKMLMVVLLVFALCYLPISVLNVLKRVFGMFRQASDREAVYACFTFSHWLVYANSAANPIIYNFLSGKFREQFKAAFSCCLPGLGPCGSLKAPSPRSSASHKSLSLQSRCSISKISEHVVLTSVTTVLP
Description: as §1
The affinity of the compounds according to the invention for the orexin 1 receptors was also studied in an in vitro binding test according to the same technique using radioiodinated orexin A as ligand in a membrane preparation of CHO cells expressing the human orexin 1 receptors. The compounds according to the invention have little or no affinity for the orexin 1 receptors.

[1] = Table 2, in vitro binding test, 100 pM radioiodinated orexin A, 30 minutes at 25° C.

pIC50 (human orexin 2 receptors; Table 1, assay not given)	pIC50 (human orexin 2 receptors; [1])	pIC50 (human orexin 1 receptors)	Compound
8.00	–	–	COc1ccc(S(=O)(=O)N(c2c(Cc3c(F)cccc3F)cccc2OC)[C@H]2CCC[C@@H]2N)cc1OC [Compound 14, N-[(1S,2S)-2-aminocyclopentyl]-N-[2-(2,6-difluorobenzyl)-6-methoxyphenyl]-3,4-dimethoxy-benzenesulfonamide hydrochloride]
8.04	–	–	COc1ccc(S(=O)(=O)N(c2c(Cc3c(F)cccc3F)cccc2OC)[C@H]2CCNC2)cc1OC (atropisomer, axis not shown) [Compound 6, N-[2-(2,6-difluorobenzyl)-6-methoxyphenyl]-3,4-dimethoxy-N-[(3S)-pyrrolidin-3-yl]benzenesulfonamide hydrochloride]
–	8.05	6.99	COc1ccc(S(=O)(=O)N(c2c(Cc3c(F)cccc3F)cccc2OC)[C@H]2CCNC2)cc1OC (atropisomer, axis not shown) [Compound 7, N-[2-(2,6-difluorobenzyl)-6-methoxyphenyl]-3,4-dimethoxy-N-[(3S)-pyrrolidin-3-yl]benzenesulfonamide hydrochloride]
–	7.79	5.86	COc1ccc(S(=O)(=O)N(c2ccc(Cl)cc2Cc2c(F)cccc2F)[C@H]2CCNC2)cc1OC [Compound 1, N-[4-chloro-2-(2,6-difluorobenzyl)phenyl]-3,4-dimethoxy-N-[(3S)-pyrrolidin-3-yl]benzenesulfonamide hydrochloride]
8.14	–	–	COc1ccc(S(=O)(=O)N(c2c(Cc3ccccc3Cl)cccc2OC)[C@H]2CCNC2)cc1OC [Compound 11, N-[2-(2-chlorobenzyl)-6-methoxyphenyl]-3,4-dimethoxy-N-[(3S)-pyrrolidin-3-yl]benzenesulfonamide hydrochloride]
7.92	–	–	COc1ccc(S(=O)(=O)N(c2c(Cc3c(F)cccc3F)cc(Cl)cc2OC)[C@H]2CCNC2)cc1OC [Compound 18, N-[2-(2,6-difluorobenzyl)-4-chloro-6-methoxyphenyl]-3,4-dimethoxy-N-[(3S)-pyrrolidin-3-yl]benzenesulfonamide hydrochloride]
